# Measurements taken from US7052705B2, “Anti-angiogenic peptides” (Regeneron Pharmaceuticals, Inc., priority 2001, dated 2006).
# pIC50, pKd: −log10 of the molar value. Where “and” joins values, the source holds several entries; their conditions need not be identical. Equal values may be shown once. Read-outs that look alike come from different tables or passages of the source. Ends that are not written are not given here.
# What was measured:
# VEGFR-2 = biological target: T1, VEGFR-2 (Homo sapiens, UniProt P35968); assay type: binding
# T1 construct: In the COS-1 cells overexpressing the full-length VEGFR-2; expressed in transfected cells; host or cells: COS-1
# Method: (§1) When co-expressing VEGFR-2 and NP-1, 5 μg of VEGFR-2 cDNA and 2 μg of NP-1 cDNA are used. When the receptors are expressed in isolation, for VEGFR-2, 5 μg of VEGFR-2 cDNA and 2 μg of mock vector cDNA are used.
# (§2) After generation of the liposome/DNA solution, the cells are rinsed one time with 5 ml Optimem I, then replaced with another 5 ml of Optimem I containing the liposome/DNA solution. The cells are incubated for two to four hours at 37° C., 5% CO2, then 5 ml of COS-1 cell growth medium is applied and the transfection is allowed to proceed overnight. The following day, cells are trypsinized (0.2% trypsin, 1 mM EDTA, Gibco-BRL), and cells containing common transfectants are pooled. […] The cells are then used for corresponding VEGFR-2/NP-1 complex formation and peptide blocking studies.
# Cells are plated the day before experimentation at 200,000 cells per well in twelve well tissue culture plates (VWR) in 1 ml of growth medium specific for each cell type. […]
# (§3) Unbound ligand is then removed by quickly washing three times with 5 ml ice cold BSA-free binding buffer (MEM, Gibco, 25 mM Hepes, Gibco). Cells are lysed by the addition of 250 μl of RIPS Buffer (previously described), and the lysed cells are transferred to 12×75 mm test tubes and counted using a gamma counter. […]
# VEGFR-2/NP-1 [1] = tested on: T2, VEGFR-2/NP-1; assay type: binding, human
# T2 construct: In the COS-1 cells overexpressing the full-length VEGFR-2; the NP-1 cDNA used for these experiments would only produce the full-length receptor; expressed in transfected cells; host or cells: COS-1
# Method: as §1, §2
# (§4) Cells are plated the day before experimentation at 200,000 cells per well in twelve well tissue culture plates (VWR) in 1 ml of growth medium specific for each cell type. On the day of experimentation, the cells were pre-equilibrated at 4° C. for 30 to 60 minutes in binding buffer (0.2% BSA, Sigma; 25 mM Hepes, Gibco; MEM, Gibco). […] The binding reaction is allowed to reach equilibrium for four hours at 4° C. with gentle agitation.
# (§5) Unbound ligand is then removed by quickly washing three times with 5 ml ice cold BSA-free binding buffer (MEM, Gibco, 25 mM Hepes, Gibco). Cells are lysed by the addition of 250 μl of RIPS Buffer (previously described), and the lysed cells are transferred to 12×75 mm test tubes and counted using a gamma counter. Generation of competition curves and IC50 values are performed using the Prism software package (Graphpad Software Inc., San Diego, Calif.).
# NP-1 [2] = biological target: T3, NP-1 (Homo sapiens, UniProt O14786); assay type: binding; parameters: the NP-1 cDNA used for these experiments would only produce the full-length receptor; expressed in transfected cells; host or cells: COS-1
# Method: as §1, §2, §4, §5
# VEGFR-2/NP-1 [3] = experiment: Whole cell binding assay: competition for 125I-VEGF165 in stable Balb/C 3T3 A31 cells overexpressing VEGFR-2 and NP-1; parameters: species or system human
# Method: (§6) Balb/C 3T3 A31 VEGFR-2, NP-1, and VEGFR-2/NP1 stable cells are created using the Nolan Lab Phoenix Retroviral system, previously described.
# (§7) Virus containing the hNP-1 gene is generated according to the procedure outlined previously using the QMXE cells.
# (§8) Clonal cell lines are obtained by subjecting the NP-1 infected cells to neomycin selection using Balb/C growth medium containing 1.5–2.0 mg/ml G418 (Gibco-BRL) for two weeks. Single colonies are obtained and clones are subjected to Western blot analysis to confirm stable expression of NP-1.
# as §4, §3
# NP-1 [4] = biological target: T3, NP-1; experiment: Whole cell binding assay: competition for 125I-VEGF165 in stable Balb/C 3T3 A31 cells overexpressing NP-1; settings: for pIC50: Balb/C 3T3 A31 cells, competition for 125I-VEGF165; for Relative affinity (IC50 peptide / IC50 VEGF165), NP-1: Stable Balb/c cells
# Method: as §6, §7, §8, §4, §5
# [5] = tested on: Balb/c cells (Mock, endogenous NP-1); experiment: Saturation analysis of 125I-VEGF165 binding, Balb/c Mock (pGBMGH); settings: Balb/c stable
# From the text: Pools of infected Balb/C 3T3 A31 cells expressing hVEGFR-2 or GFP alone (Mock) are selected two times by FACS sorting using the hVEGFR-2 specific monoclonal antibody J5F4A2 (Procter & Gamble Pharmaceuticals as described in J. Biol. Chem. 276(27):25520–25531 (2001), which is expressly incorporated by reference herein in its entirety, for the VEGFR-2 cells, or by GFP emission for the Mock cells. Clonal populations of VEGFR-2 are generated by subjecting the FACS sorted VEGFR-2 cell pool to limiting dilution. A clonal hVEGFR-2 cell line termed D7R2 is selected for experimental studies based on its high levels of hVEGFR-2 expression by Western blot analysis. The pool of the Mock GFP expressing cells, hereinafter referred to as pGBMGH, is not subjected to limiting dilutions and thus is not a clonal population.
# as §3
# This possibility was evaluated by determining equilibrium binding Kd values in cells expressing VEGFR-2 alone, NP-1 alone, and cells co-expressing both receptors, using standard saturation analysis techniques as known to one skilled in the art. […]
# [6] = tested on: VEGF165 vascular growth response; experiment: Mouse corneal pocket model; assay type: in vivo; parameters: key to Score #1 (subjective neovascular response score) / Score #2 (subjective neovascular response score) / Score #3 (subjective neovascular response score): subjective neovascular growth score, 0 to 6 scale; settings: per animal, scale 0 to 6, pellet P6V8 4 μg and/or VEGF165 300 ng
# Method: A 0.2 μl aliquot of this solution yielded a 4 μg dose. Human recombinant VEGF165 was purchased from R&D Systems (Minneapolis, Minn.), supplied in a lyophilized, carrier free form and reconstituted in the same water as the above peptide. A 0.2 μl aliquot of this solution yielded a 300 ng dose.
# Male albino mice (Crl: CD-I (ICR) BR, VAF) from Charles River (Portage, N.C.), 20–24 grams were used. […] Compound adsorbed pellets were fabricated and implanted as described below. The treated eye was imaged on the day of implantation (day 0) and on days 4 and 7 following surgery. The growth response was subjectively graded on a scale from 0 to 6 by three independent graders blinded from the treatment grouping labels using the 3× printed image.
# Polyvinyl alcohol (PVA) matrix material (Rippey, El Dorado Hills, Calif.) was cut into 1 cm×3 cm pieces and placed in a vibratome for sectioning on edge to produce 300 μm thick strips. The strips were individually sterilized by exposure to ethylene oxide. A strip was then cut under a dissecting microscope into approximately 300 μm cubes. The desired concentration of test compound or vehicle was adsorbed, sometimes utilizing a micro dessicant chamber. An HP auto sampler micro-syringe (Hamilton, P/N 7000.5) controlled the exact volume of the agent adsorbed onto the sponge. The sponge was then placed on a microscope slide prepared with a coating (20 μl spread over a 0.75 mm×1.5 mm area) of 12% hydron (Sigma, St. Louis, Mo.). The slide was protected in a clean petri dish and placed into a dessicator at 4° C. for a few hours or overnight. The dry, adsorbed sponges were mechanically flattened and overlaid with another aliquot of 12% hydron and again placed into a dessicator to cure the hydron coating. Fabrication of the adsorbed PVA sponge-hydron sandwich (referred to as a pellet) was done no more than 48 hours prior to implantation and the pellets were stored at 4° C. On the day of surgery and just prior to implantation, the pellet was trimmed so that the sponge remained encased by hydron (approximately 400 μm×400 μm×50 μm) and could be carefully removed from the slide.
# Mice were anesthetized with 0.05 cc of Ketamine (140 mg/kg) and 0.03 cc Xylazine (17 mg/kg). A surgical plane of anesthesia was maintained by subsequent administration of half doses of the above compounds as needed. The whiskers on the animal's right side were trimmed down to ¼ of an inch. The right eye was bathed in an ophthalmic local anesthetic solution (Ophthaine, 0.5% tetracine hydrochloride) initially and throughout the procedure. The animal was placed on its side and the skin around the eye was gently retracted to expose the lateral and apical aspects of the cornea. The lateral limbic artery bifurcation was positioned horizontally. While stabilizing the eye against the ocular orbit, a vertical incision was made using a micro scalpel into the corneal tissue just lateral to the pupil. Care was taken to prevent accidental perforation of the anterior eye chamber. The incision depth was carefully deepened until a delicate and small lateral stab could be made (on axis with the lateral limbic artery bifurcation) with the micro scalpel into the middle of the corneal stroma. This lateral, intrastromal incision was enlarged by blunt dissection with very fine forceps until a pocket was formed from the vertical incision toward the limbus.
# A hydron coated PVA sponge with adsorbed test compound (pellet) was prepared for implantation by carefully excising and removing it from the microscope slide. The pellet was introduced gently into the corneal pocket and advanced to within 1–2 mm of the limbus. The edges of the vertical corneal incision were approximated to encourage rapid healing. The imaging procedure (described below) was used to document the native limbic vascular architecture at the time of implantation. Post surgical recovery of the animal consisted of triple antibiotic ophthalmic ointment to prevent corneal drying, abrasion and infection. […]
# COS-1 cells (Mock) = experiment: Saturation analysis of 125I-VEGF165 binding, COS-1 Mock; settings: COS-1 transient
# From the text: To perform hNeuropilin-1 (hNP-1) and hVEGFR-2 complex formation and peptide blocking experiments, the hVEGFR-2 and hNP-1 cDNAs are cloned into the pJFE14 mammalian expression plasmid (Regeneron Pharmaceuticals) containing the SRα promoter. COS-1 cells are transiently transfected with pJFE14 (Regeneron Pharmaceuticals), hVEGFR-2 (Regeneron Pharmaceuticals), or hNP-1 (Procter & Gamble Pharmaceuticals) expression plasmids using the Lipofectamine-2000 system (Gibco-BRL). […] When co-expressing VEGFR-2 and NP-1, 5 μg of VEGFR-2 cDNA and 2 μg of NP-1 cDNA are used. When the receptors are expressed in isolation, for VEGFR-2, 5 μg of VEGFR-2 cDNA and 2 μg of mock vector cDNA are used.
# as §5, with “Calif.). […]” for “Calif.).”
# This possibility was evaluated by determining equilibrium binding Kd values in cells expressing VEGFR-2 alone, NP-1 alone, and cells co-expressing both receptors, using standard saturation analysis techniques as known to one skilled in the art.
# T3 sequence (O14786 22-923): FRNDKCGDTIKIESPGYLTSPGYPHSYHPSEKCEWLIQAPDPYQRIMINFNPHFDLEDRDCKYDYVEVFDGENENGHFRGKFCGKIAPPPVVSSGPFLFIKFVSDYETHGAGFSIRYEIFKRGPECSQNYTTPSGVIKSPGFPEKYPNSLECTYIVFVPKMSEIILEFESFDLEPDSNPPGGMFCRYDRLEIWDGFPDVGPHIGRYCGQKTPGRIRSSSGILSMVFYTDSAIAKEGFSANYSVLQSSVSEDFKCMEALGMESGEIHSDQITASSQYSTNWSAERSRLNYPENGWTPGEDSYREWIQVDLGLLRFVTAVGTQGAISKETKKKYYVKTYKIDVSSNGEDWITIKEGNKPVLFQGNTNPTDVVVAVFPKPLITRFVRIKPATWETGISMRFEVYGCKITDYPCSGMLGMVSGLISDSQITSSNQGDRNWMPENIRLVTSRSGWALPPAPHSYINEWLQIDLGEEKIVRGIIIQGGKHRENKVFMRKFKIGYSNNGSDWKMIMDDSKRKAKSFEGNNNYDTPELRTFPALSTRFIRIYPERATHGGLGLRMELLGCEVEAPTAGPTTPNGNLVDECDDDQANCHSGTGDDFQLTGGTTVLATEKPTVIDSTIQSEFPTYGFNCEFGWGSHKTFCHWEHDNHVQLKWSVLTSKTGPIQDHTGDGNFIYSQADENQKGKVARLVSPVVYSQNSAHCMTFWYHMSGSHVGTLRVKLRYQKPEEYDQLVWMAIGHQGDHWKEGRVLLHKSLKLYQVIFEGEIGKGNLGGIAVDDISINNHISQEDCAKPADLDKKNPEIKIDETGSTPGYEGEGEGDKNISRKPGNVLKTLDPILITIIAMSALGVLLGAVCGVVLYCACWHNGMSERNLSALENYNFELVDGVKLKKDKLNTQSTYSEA
# T1 sequence (P35968 20-1356): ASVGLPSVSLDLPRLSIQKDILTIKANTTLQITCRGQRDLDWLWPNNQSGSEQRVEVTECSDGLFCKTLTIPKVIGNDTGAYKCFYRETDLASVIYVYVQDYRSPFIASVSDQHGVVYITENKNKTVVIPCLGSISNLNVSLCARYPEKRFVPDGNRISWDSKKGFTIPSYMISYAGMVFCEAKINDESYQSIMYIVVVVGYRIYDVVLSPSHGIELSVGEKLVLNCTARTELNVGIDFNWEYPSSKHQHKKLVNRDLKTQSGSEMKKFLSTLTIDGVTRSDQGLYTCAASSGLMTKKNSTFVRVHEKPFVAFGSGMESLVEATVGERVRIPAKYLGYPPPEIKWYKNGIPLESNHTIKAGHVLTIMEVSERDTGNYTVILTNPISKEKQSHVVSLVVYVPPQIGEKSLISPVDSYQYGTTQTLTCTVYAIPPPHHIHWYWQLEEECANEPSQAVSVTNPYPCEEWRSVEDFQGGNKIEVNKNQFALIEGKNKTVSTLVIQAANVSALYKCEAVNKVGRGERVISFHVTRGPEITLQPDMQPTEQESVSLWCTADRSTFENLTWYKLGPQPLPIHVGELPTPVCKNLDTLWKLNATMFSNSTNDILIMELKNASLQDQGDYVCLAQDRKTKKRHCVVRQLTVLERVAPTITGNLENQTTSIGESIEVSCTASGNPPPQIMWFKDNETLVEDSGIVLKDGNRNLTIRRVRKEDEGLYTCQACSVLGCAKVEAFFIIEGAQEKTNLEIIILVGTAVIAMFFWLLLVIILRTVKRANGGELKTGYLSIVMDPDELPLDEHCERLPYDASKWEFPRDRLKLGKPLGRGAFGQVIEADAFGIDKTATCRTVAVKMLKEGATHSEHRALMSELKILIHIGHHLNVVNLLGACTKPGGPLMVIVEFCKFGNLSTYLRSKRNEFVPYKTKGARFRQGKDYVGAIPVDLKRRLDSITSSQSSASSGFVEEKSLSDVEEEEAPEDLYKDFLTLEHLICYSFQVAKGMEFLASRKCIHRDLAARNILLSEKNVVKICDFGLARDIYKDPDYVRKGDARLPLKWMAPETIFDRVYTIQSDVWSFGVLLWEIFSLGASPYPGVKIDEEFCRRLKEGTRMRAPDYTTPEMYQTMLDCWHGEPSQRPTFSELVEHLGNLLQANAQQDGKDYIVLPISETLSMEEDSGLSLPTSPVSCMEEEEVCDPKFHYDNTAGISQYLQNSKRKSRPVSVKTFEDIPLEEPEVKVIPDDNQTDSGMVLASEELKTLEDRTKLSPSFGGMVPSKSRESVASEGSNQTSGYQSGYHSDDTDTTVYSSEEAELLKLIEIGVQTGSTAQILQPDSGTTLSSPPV
Substance,"Relative Affinity to Lead Peptide (RALP), VEGFR-2 (VEGFR-2)","Relative Affinity to Lead Peptide (RALP), NP-1 (NP-1 [2])","Relative Affinity to Lead Peptide (RALP), VEGFR-2/NP-1 (VEGFR-2/NP-1 [1])","Relative affinity (IC50 peptide / IC50 VEGF165), VEGFR-2/NP-1 (VEGFR-2/NP-1 [3])",pIC50 (NP-1 [4]),"Relative affinity (IC50 peptide / IC50 VEGF165), NP-1 (NP-1 [4])",also measured
"H-RRPKGRGKRAAAKQRPSDKPRR-OH [AS-3, RRP KGR GKR AAA KQR PSD KPR R]",4,0.55,–,–,–,–,"Relative Affinity to Lead Peptide (RALP), VEGFR-2/NP-1 (VEGFR-2/NP-1 [1]; AS series, lead peptide P6V8CS, COS-1, NC = no competition): complete loss of binding"
H-RRPKGRGKRRREKQRAAAKPRR-OH [AS-4A],1.9,2.1,0.78,–,–,–,–
"KGRGKRRREKQRPCDKPRR [Peptide P6V8-3N, KGR GKR RRE KQR P CDK PRR]",–,–,–,"6,928",6.60,"1,607",–
RRPKGRGKRRREAAAPSDKPRR [AS-4],–,0.45,4.2,"3,856",7.75,112,selectivity for cells expressing NP-1 alone versus cells co-expressing VEGFR-2 and NP-1 (NP-1 [2]; COS-1): about 100 fold
"VEGF165: human recombinant VEGF165 (R&D Systems), vascular endothelial growth factor isoform 165",–,–,–,–,–,–,pKd [5]: 9.65; Log Kd ± SEM [5]: −9.65 ± 0.13; Score #1 (subjective neovascular response score) ([6]; grader 1): 2 (2×) and 3 (3×) and 4 (2×) and 5; Score #2 (subjective neovascular response score) ([6]; grader 2): 2 (3×) and 4 (4×) and 5; Score #3 (subjective neovascular response score) ([6]; grader 3): 2 (3×) and 3 (2×) and 4 and 5 (2×); pKd (COS-1 cells (Mock)): 8.95; Log Kd ± SEM (COS-1 cells (Mock)): −8.95 ± 0.31
